US20100120762A1, “Triazine derivatives as inhibitors of phosphodiesterases” (WYETH, priority 2008, published 2010)

Experiments:
[1] = molecular target: T1, PDE2A (NM002599) (Homo sapiens, UniProt O00408); test: Inhibition of recombinant PDE2A (expressed in baculovirus/SF21-cells); format: biochemical; details: recombinant PDE2A, 0.5 μM [3H]-cAMP, 1000 nM cGMP, 37° C., 30 minutes, SPA; read-out: PDE2A IC50
T1 construct: made in house; host or cells: baculovirus / SF21 insect cells
Description: PDE2A (NM002599) was cloned and the gene was inserted in the baculovirus and the enzyme-protein expressed in SF21-cells. The enzyme was isolated from these cells by harvesting the cells by an centrifugation at 200 g to collect the cells. The cells were resuspended in 50 mM Tris-HCl/5 mM MgCl2 buffer (pH=7.4) (Sigma, Deisenhofen, Germany; Merck, Darmstadt, Germany) and lysed by a sonication of the cells (three times for 15 seconds, Labsonic U, Fa. Braun, Degersheim, Switzerland, level “high”). The membrane fraction of PDE2A was obtained by a centrifugation at 48 000 g for 1 h, resuspended in buffer and stored at −70° C.
PDE2A activity was determined in a one step procedure in microtiterplates. The reaction mixture of 100 μl contained 50 mM Tris-HCl/5 mM MgCl2 buffer (pH=7.4) (Sigma, Deisenhofen, Germany; Merck, Darmstadt, Germany), 0.5 μM [3H]-cAMP (Amersham, Buckinghamshire, UK), 1000 nM cGMP and the enzyme. Non-specific enzyme activity was tested in the absence of cGMP. The reaction was initiated by addition of the substrate solution and was carried out at 37° C. for 30 minutes. Enzymatic activity then was stopped by addition of 25 μl SPA-beads (Amersham-Pharmacia). One hour later the mixture was measured in a liquid scintillation counter for microtiterplates (Microbeta Trilux). For pipetting of the incubation mixture the robot Biomek (Fa. Beckman) was routinely used.
The optimal amount of enzyme in the assay has been determined and optimised for each enzyme preparation separately before using the enzyme in compound testing. For determination of IC50 values the Hill-plot, 2-parameter-model, was used.

[2] = molecular target: T2, PDE10A1 (AB 020593) (Homo sapiens, UniProt Q9Y233); test: Inhibition of recombinant PDE10A (baculovirus/SF21 system); format: biochemical; details: recombinant cytosolic PDE10A, 0.1 μM [3H]-cAMP, 37° C., 30 minutes, SPA; read-out: PDE10A IC50
T2 construct: made in house; host or cells: baculovirus / SF21 insect cells (gene synthesized by Entelechon GmbH)
T2 sequence (Q9Y233 other isoform, or with tags, fused parts or gaps): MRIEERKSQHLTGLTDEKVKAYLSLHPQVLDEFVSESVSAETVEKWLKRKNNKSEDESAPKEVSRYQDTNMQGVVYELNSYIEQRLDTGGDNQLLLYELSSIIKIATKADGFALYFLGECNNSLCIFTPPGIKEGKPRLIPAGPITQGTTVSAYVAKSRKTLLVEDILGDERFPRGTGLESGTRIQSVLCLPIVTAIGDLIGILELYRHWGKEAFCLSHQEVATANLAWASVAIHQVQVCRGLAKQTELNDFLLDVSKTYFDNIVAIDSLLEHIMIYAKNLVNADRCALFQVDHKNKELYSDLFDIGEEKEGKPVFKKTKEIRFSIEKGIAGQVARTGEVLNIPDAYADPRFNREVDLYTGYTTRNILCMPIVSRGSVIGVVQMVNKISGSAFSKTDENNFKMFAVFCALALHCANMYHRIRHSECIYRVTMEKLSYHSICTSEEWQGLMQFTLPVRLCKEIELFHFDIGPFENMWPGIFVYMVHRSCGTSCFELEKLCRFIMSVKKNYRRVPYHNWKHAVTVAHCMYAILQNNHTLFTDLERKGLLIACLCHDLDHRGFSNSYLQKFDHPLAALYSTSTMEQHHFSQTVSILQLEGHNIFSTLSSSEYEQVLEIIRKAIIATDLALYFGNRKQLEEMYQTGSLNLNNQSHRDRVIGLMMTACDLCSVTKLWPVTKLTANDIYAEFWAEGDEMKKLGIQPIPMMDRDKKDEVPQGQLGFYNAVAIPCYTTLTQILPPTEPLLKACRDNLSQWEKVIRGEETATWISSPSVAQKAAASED
Description: The DNA of PDE10A1 (AB 020593, 2340 bp) was synthesized and cloned into the vector pCR4.TOPO (Entelechon GmbH, Regensburg, Germany). The gene was than inserted into a baculovirus vector, ligated with the baculovirus DNA. The enzyme-protein was expressed in SF21-cells. The enzyme was isolated from these cells by harvesting the cells by an centrifugation at 500 g to collect the cells.
The cells were resuspended in 50 mM Tris-HCl/1 mM EDTA/250 mM Sucrose buffer, pH=7.4 (Sigma, Deisenhofen, Germany; Merck, Darmstadt, Germany) and lysed by sonification of the cells (three times for 15 seconds, Labsonic U, Fa. Braun, Degersheim, Switzerland, level “high”). The cytosolic PDE10A was obtained by a centrifugation at 48,000 g for 1 h in the supernatant and stored at −70° C.
PDE activity was determined in a one step procedure in microtiter plates. The reaction mixture of 100 μl contained 50 mM Tris-HCl/5 mM MgCl2 buffer (pH=7.4, Sigma, Deisenhofen, Germany; Merck, Darmstadt, Germany) 0.1 μM [3H]-cAMP (Amersham, Buckinghamshire, UK) and the enzyme. Non-specific enzyme activity was determined without the enzyme. The reaction was initiated by addition of the substrate solution and was carried out at 37° C. for 30 minutes. Enzymatic activity then was stopped by addition of 25 μl Ysi-SPA-beads (Amersham-Pharmacia). One h later the mixture was measured in a liquid scintillation counter for microtiter plates (Microbeta Trilux). The Biomek 2000 (Beckman) was used routinely for pipetting of the incubation mixture. The optimal amount of enzyme in the assay has been determined and optimized for each enzyme preparation separately before using the enzyme in compound testing. For determination of IC50 values the Hill-plot, 2-parameter-model, was used.

T1 sequence (O00408 whole entry): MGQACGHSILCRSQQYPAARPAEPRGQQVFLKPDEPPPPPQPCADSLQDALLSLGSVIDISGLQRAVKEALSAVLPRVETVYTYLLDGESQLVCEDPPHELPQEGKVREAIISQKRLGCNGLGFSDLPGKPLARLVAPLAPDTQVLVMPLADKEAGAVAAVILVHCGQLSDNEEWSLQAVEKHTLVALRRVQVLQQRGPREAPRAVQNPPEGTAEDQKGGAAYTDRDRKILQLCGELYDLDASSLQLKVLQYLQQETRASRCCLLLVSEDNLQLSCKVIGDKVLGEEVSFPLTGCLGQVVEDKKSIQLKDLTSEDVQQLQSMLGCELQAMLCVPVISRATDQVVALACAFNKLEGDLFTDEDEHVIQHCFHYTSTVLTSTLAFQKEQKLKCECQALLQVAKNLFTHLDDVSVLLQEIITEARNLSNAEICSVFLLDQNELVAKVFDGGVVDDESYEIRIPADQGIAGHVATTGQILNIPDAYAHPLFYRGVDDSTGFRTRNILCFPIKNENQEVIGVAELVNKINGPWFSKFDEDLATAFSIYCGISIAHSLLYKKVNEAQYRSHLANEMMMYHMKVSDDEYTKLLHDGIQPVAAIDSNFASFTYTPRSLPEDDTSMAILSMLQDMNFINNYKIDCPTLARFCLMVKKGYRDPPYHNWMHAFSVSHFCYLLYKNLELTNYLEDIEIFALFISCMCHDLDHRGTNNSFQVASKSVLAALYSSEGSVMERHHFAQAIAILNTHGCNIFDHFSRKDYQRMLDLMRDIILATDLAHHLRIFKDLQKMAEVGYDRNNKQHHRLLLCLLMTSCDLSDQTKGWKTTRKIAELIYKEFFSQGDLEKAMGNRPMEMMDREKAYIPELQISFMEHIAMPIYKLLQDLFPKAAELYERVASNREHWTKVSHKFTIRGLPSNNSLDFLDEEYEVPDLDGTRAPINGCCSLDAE

| SMILES | IC50 [1] [nM] | IC50 [2] [nM] |
| --- | --- | --- |
| CCc1ccccc1-c1nc(C)c2nnc3ccc(OC)nc3n12 [Example 35, 9-(2-ethylphenyl)-2-methoxy-7-methylimidazo[5,1-c]pyrido[2,3-e][1,2,4]triazine] | 41.6 | 59.4 |
| CCOc1cccc(-c2nc(C)c3nnc4ccc(OC)nc4n23)c1 [Example 36, 9-(3-ethoxyphenyl)-2-methoxy-7-methylimidazo[5,1-c]pyrido[2,3-e][1,2,4]triazine] | 148 | 303 |
| COc1ccc2nnc3c(C)nc(-c4cccc(OC)c4OC)n3c2n1 [Example 37, 9-(2,3-dimethoxyphenyl)-2-methoxy-7-methylimidazo[5,1-c]pyrido[2,3-e][1,2,4]triazine] | 274 | 146 |
| CCOc1cccc(-c2nc(C)c3nnc4ccc(OC)nc4n23)c1F [Example 38, 9-(3-ethoxy-2-fluorophenyl)-2-methoxy-7-methylimidazo[5,1-c]pyrido[2,3-e][1,2,4]triazine] | 243 | 617 |
| COc1ccc2nnc3c(C)nc(-c4cccc(OC)c4Cl)n3c2n1 [Example 39, 9-(2-chloro-3-methoxyphenyl)-2-methoxy-7-methylimidazo[5,1-c]pyrido[2,3-e][1,2,4]triazine] | 111 | 115 |
| COc1cncc(-c2nc(C)c3nnc4ccc(OC)nc4n23)c1 [Example 40, 2-methoxy-9-(5-methoxypyridin-3-yl)-7-methylimidazo[5,1-c]pyrido[2,3-e][1,2,4]triazine] | 14 | 91.3 |
| COc1ccc2nnc3c(C)nc(-c4cc(Cl)cnc4OC)n3c2n1 [Example 41, 9-(5-chloro-2-methoxypyridin-3-yl)-2-methoxy-7-methylimidazo[5,1-c]pyrido[2,3-e][1,2,4]triazine] | 54.3 | 291 |
| COc1ccc2nnc3c(C)nc(-c4cccnc4OC(C)C)n3c2n1 [Example 42, 2-methoxy-7-methyl-9-[2-(1-methylethoxy)pyridin-3-yl]imidazo[5,1-c]pyrido[2,3-e][1,2,4]triazine] | 751 | < 5000 |
| COc1ccc2nnc3c(C)nc(-c4cncc(F)c4)n3c2n1 [Example 43, 9-(5-fluoropyridin-3-yl)-2-methoxy-7-methylimidazo[5,1-c]pyrido[2,3-e][1,2,4]triazine] | 272 | 367 |
| COc1ccc2nnc3c(C)nc(-c4ccncc4)n3c2n1 [Example 44, 2-methoxy-7-methyl-9-pyridin-4-ylimidazo[5,1-c]pyrido[2,3-e][1,2,4]triazine] | 477 | 348 |
| COc1ccc2nnc3c(C)nc(-c4ccncc4Cl)n3c2n1 [Example 45, 9-(3-chloropyridin-4-yl)-2-methoxy-7-methylimidazo[5,1-c]pyrido[2,3-e][1,2,4]triazine] | 31.7 | 36.9 |
| COc1cc(-c2nc(C)c3nnc4ccc(OC)nc4n23)c(Cl)cn1 [Example 46, 9-(5-chloro-2-methoxypyridin-4-yl)-2-methoxy-7-methylimidazo[5,1-c]pyrido[2,3-e][1,2,4]triazine] | 70.1 | 191 |
| COc1ccc2nnc3c(C)nc(-c4cnccc4OC)n3c2n1 [Example 47, 2-methoxy-9-(4-methoxypyridin-3-yl)-7-methylimidazo[5,1-c]pyrido[2,3-e][1,2,4]triazine] | 69.4 | 178 |
| COc1ccc2nnc3c(C)nc(-c4ccc5nccn5c4)n3c2n1 [Example 48, 9-imidazo[1,2-a]pyridin-6-yl-2-methoxy-7-methylimidazo[5,1-c]pyrido[2,3-e][1,2,4]triazine] | 550 | 260 |
| COc1ccc2nnc3c(C)nc(-c4cc(C(C)=O)ccc4Cl)n3c2n1 [Example 49, 1-[4-chloro-3-(2-methoxy-7-methylimidazo[5,1-c]pyrido[2,3-e][1,2,4]triazin-9-yl)phenyl]ethanone] | 27.5 | 403 |
| COc1ccc2nnc3c(C)nc(-c4cccnc4C)n3c2n1 [Example 50, 2-methoxy-7-methyl-9-(2-methylpyridin-3-yl)imidazo[5,1-c]pyrido[2,3-e][1,2,4]triazine] | 15.9 | 126 |
| COc1ccc2nnc3c(C)nc(-c4cnccc4C)n3c2n1 [Example 51, 2-methoxy-7-methyl-9-(4-methylpyridin-3-yl)imidazo[5,1-c]pyrido[2,3-e][1,2,4]triazine] | 142 | 388 |
| COc1ccc2nnc3c(C)nc(-c4ccncc4OC)n3c2n1 [Example 52, 2-methoxy-9-(3-methoxypyridin-4-yl)-7-methylimidazo[5,1-c]pyrido[2,3-e][1,2,4]triazine] | 165 | 225 |
| COc1ccc2nnc3c(C)nc(-c4cccnc4F)n3c2n1 [Example 53, 9-(2-fluoropyridin-3-yl)-2-methoxy-7-methylimidazo[5,1-c]pyrido[2,3-e][1,2,4]triazine] | 29.6 | 147 |
| COc1ccc2nnc3c(C)nc(-c4sc(C)nc4C)n3c2n1 [Example 54, 9-(2,4-dimethyl-1,3-thiazol-5-yl)-2-methoxy-7-methylimidazo[5,1-c]pyrido[2,3-e][1,2,4]triazine] | 23 | 64.5 |
| COc1ccc2nnc3c(C)nc(-c4cccnc4)n3c2n1 [Example 55, 2-methoxy-7-methyl-9-pyridin-3-ylimidazo[5,1-c]pyrido[2,3-e][1,2,4]triazine] | 144 | 682 |
| COc1ccc2nnc3c(C)nc(-c4cccc(F)c4C)n3c2n1 [Example 56, 9-(3-fluoro-2-methylphenyl)-2-methoxy-7-methylimidazo[5,1-c]pyrido[2,3-e][1,2,4]triazine] | 21.3 | 35.6 |
| COc1ccc2nnc3c(C)nc(-c4ccc(F)cc4C)n3c2n1 [Example 57, 9-(4-fluoro-2-methylphenyl)-2-methoxy-7-methylimidazo[5,1-c]pyrido[2,3-e][1,2,4]triazine] | 21.2 | 64.4 |
| COc1cccc(-c2nc(C)c3nnc4ccc(OC)nc4n23)c1 [Example 58, 2-methoxy-9-(3-methoxyphenyl)-7-methylimidazo[5,1-c]pyrido[2,3-e][1,2,4]triazine] | 14.7 | 37.7 |
| COc1ccc(Cl)c(-c2nc(C)c3nnc4ccc(OC)nc4n23)c1 [Example 59, 9-(2-chloro-5-methoxyphenyl)-2-methoxy-7-methylimidazo[5,1-c]pyrido[2,3-e][1,2,4]triazine] | 2.2 | 40.9 |
| COc1ccc2nnc3c(C)nc(-c4cc(Cl)ccc4C)n3c2n1 [Example 60, 9-(5-chloro-2-methylphenyl)-2-methoxy-7-methylimidazo[5,1-c]pyrido[2,3-e][1,2,4]triazine] | 8 | 106 |
| COc1ccc2nnc3c(C)nc(-c4ccc(C)cc4Cl)n3c2n1 [Example 61, 9-(2-chloro-4-methylphenyl)-2-methoxy-7-methylimidazo[5,1-c]pyrido[2,3-e][1,2,4]triazine] | 7.54 | 21.6 |
| COc1ccc2nnc3c(C)nc(-c4cc(F)ccc4Cl)n3c2n1 [Example 62, 9-(2-chloro-5-fluorophenyl)-2-methoxy-7-methylimidazo[5,1-c]pyrido[2,3-e][1,2,4]triazine] | 5.32 | 21.2 |
